# Experimental data from ChEMBL document CHEMBL4229407, “Optimization and in vivo evaluation of pyrazolopyridines as a potent and selective PI3Kδ inhibitor” (Bioorg Med Chem, 2018).
# Assays:
# [1] = molecular target: PI3-kinase p110-delta/p85-alpha (Homo sapiens, UniProt O00329); test: Inhibition of recombinant human full length N-terminal His6-tagged PI3K p110delta/p85alpha expressed in baculovirus infected Sf21 cells using PIP2 as substrate after 35 to 40 mins by HTRF assay
# Homo sapiens [2] = species: Homo sapiens; test: Selectivity ratio of IC50 for recombinant human full length N-terminal His6-tagged PI3K p110alpha/p85alpha expressed in baculovirus infected Sf21 cells to IC50 for recombinant human full length N-terminal His6-tagged PI3K p110delta/p85alpha expressed in baculovirus infected Sf21 cells
# [3] = Intrinsic clearance in CD-1 mouse liver microsomes at 0.2 uM up to 45 mins in presence of NADPH by LC-MS/MS analysis; type: ADME, microsome; conditions: read-out: CLH
# [4] = Aqueous solubility in pH 6.8 solution at 130 uM after 20 hrs by liquid chromatography method; type: physicochemical; conditions: aqueous pH 6.8 solution
# Homo sapiens [5] = species: Homo sapiens; test: Selectivity ratio of IC50 for recombinant human full length N-terminal His6-tagged PI3K p110beta/p85alpha expressed in baculovirus infected Sf21 cells to IC50 for recombinant human full length N-terminal His6-tagged PI3K p110delta/p85alpha expressed in baculovirus infected Sf21 cells
# Homo sapiens [6] = species: Homo sapiens; test: Selectivity ratio of IC50 for recombinant human full length N-terminal His6-tagged PI3K p120gamma expressed in baculovirus infected Sf21 cells to IC50 for recombinant human full length N-terminal His6-tagged PI3K p110delta/p85alpha expressed in baculovirus infected Sf21 cells
# [7] = Permeability of the compound at 50 uM after 2 hrs by HPLC based PAMPA; type: ADME; conditions: read-out: permeability
# Cytochrome P450 1A2 = molecular target: T1, Cytochrome P450 1A2 (Homo sapiens, UniProt P05177); test: Inhibition of CYP1A2 in human liver microsomes at 5 uM using phenacetin as substrate after 20 mins in presence of NADPH by LC-MS/MS analysis; type: ADME
# T1 sequence (P05177 whole entry): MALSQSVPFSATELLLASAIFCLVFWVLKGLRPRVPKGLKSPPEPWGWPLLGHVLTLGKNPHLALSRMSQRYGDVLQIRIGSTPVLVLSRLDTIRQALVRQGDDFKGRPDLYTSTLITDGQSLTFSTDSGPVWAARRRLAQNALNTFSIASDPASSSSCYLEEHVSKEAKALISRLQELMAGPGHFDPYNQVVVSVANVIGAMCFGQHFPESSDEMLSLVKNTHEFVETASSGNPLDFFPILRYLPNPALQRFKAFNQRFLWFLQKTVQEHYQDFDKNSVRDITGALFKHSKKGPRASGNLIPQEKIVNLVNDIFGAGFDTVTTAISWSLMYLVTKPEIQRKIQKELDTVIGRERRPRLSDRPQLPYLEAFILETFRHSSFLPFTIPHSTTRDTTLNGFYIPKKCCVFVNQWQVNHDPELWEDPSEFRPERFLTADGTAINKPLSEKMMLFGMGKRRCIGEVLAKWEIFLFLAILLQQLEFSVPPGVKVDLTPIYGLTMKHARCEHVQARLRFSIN
# Cytochrome P450 2C8 = molecular target: T2, Cytochrome P450 2C8 (Homo sapiens, UniProt P10632); test: Inhibition of CYP2C8 in human liver microsomes at 5 uM using amodiaquine as substrate after 20 mins in presence of NADPH by LC-MS/MS analysis; type: ADME
# T2 sequence (P10632 whole entry): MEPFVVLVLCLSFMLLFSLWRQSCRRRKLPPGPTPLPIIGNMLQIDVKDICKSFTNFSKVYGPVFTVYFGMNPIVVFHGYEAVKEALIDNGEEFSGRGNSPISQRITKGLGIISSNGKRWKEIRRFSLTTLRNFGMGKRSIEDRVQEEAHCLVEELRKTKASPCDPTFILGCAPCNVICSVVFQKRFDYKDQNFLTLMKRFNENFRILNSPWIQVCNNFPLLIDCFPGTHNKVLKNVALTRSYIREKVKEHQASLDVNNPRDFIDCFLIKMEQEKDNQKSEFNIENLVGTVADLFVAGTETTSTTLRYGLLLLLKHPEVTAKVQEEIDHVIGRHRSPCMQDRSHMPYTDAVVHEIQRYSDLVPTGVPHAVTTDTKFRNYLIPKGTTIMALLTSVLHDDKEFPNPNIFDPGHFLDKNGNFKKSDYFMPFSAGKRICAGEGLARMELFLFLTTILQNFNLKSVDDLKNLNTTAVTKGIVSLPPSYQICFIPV
# Cytochrome P450 2C9 = Cytochrome P450 2C9 (Homo sapiens, UniProt P11712); test: Inhibition of CYP2C9 in human liver microsomes at 5 uM using diclofenac as substrate after 20 mins in presence of NADPH by LC-MS/MS analysis; type: ADME
# Chain of Cytochrome P450 2C9 (P11712 whole entry): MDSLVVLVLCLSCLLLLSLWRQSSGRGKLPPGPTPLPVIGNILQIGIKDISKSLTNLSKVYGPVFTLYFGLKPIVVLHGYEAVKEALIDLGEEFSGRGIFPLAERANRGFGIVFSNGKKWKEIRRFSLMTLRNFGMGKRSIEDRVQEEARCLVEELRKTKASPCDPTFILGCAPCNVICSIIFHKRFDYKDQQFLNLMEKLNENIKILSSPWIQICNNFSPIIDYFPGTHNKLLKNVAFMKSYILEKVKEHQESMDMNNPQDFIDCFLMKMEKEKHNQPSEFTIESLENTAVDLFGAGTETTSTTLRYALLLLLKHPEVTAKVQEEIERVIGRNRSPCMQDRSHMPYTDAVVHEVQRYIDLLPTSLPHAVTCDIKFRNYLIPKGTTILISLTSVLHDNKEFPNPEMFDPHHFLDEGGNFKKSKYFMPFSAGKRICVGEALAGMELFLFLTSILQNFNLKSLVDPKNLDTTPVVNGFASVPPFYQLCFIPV
# Cytochrome P450 2C19 = Cytochrome P450 2C19 (Homo sapiens, UniProt P33261); test: Inhibition of CYP2C19 in human liver microsomes at 5 uM using S-mephenytoin as substrate after 20 mins in presence of NADPH by LC-MS/MS analysis; type: ADME
# Chain of Cytochrome P450 2C19 (P33261 whole entry): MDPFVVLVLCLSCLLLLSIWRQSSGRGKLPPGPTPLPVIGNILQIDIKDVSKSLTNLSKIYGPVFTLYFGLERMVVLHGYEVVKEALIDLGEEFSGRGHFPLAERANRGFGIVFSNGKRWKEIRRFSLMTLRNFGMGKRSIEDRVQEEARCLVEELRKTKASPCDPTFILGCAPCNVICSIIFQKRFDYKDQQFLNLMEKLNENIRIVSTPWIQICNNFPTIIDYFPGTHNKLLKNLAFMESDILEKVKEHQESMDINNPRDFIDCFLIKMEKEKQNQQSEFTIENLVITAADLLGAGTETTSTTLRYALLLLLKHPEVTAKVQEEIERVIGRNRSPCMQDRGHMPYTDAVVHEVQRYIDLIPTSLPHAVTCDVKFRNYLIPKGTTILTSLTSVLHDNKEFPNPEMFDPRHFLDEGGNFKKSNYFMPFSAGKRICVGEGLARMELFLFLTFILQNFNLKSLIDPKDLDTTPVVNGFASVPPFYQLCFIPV
# Cytochrome P450 2D6 = Cytochrome P450 2D6 (Homo sapiens, UniProt P10635); test: Inhibition of CYP2D6 in human liver microsomes at 5 uM using dextromethorphan as substrate after 20 mins in presence of NADPH by LC-MS/MS analysis; type: ADME
# Chain of Cytochrome P450 2D6 (P10635 whole entry): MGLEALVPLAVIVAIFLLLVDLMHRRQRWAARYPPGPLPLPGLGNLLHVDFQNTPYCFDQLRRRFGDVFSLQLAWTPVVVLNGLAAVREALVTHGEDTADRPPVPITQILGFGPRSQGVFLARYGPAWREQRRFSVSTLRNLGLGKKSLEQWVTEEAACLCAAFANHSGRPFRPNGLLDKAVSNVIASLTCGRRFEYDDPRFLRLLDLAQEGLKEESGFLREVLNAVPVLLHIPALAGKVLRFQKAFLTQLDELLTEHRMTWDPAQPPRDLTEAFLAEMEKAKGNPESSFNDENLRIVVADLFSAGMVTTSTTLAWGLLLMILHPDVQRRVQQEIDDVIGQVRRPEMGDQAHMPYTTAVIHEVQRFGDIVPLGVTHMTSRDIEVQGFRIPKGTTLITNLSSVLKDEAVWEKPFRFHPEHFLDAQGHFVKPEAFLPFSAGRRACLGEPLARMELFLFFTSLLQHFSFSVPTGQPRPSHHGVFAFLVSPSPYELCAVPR
# Cytochrome P450 3A4 = Cytochrome P450 3A4 (Homo sapiens, UniProt P08684); test: Inhibition of CYP3A4 in human liver microsomes at 5 uM using midazolam as substrate after 20 mins in presence of NADPH by LC-MS/MS analysis; type: ADME
# Chain of Cytochrome P450 3A4 (P08684 whole entry): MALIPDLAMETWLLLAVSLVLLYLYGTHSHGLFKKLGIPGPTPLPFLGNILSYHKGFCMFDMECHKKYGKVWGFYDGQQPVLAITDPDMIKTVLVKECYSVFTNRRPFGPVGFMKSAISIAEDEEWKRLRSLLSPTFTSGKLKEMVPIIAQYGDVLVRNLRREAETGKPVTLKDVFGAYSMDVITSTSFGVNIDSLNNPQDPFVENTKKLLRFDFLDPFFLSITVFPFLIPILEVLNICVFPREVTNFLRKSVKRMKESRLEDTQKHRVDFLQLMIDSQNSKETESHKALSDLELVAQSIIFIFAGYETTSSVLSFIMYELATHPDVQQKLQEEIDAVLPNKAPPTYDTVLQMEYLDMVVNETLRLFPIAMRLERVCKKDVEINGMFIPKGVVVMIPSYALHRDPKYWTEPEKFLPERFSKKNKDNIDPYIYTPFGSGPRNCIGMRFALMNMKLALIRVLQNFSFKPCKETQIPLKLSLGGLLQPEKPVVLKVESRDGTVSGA
# [8] = Total clearance in Balb/c mouse at 1 mg/kg, iv or 3 mg/kg, po by LC-MS/MS analysis; type: ADME, organism-based; conditions: in vivo
# [9] = Volume of distribution at steady state in Balb/c mouse at 1 mg/kg, iv or 3 mg/kg, po by LC-MS/MS analysis; type: ADME, organism-based; conditions: in vivo, read-out: Vdss
# [10] = Half life in Balb/c mouse at 1 mg/kg, iv or 3 mg/kg, po by LC-MS/MS analysis; type: ADME, organism-based; conditions: in vivo
# [11] = Cmax in Balb/c mouse at 1 mg/kg, iv or 3 mg/kg, po by LC-MS/MS analysis; type: ADME, organism-based; conditions: in vivo
# [12] = Tmax in Balb/c mouse at 1 mg/kg, iv or 3 mg/kg, po by LC-MS/MS analysis; type: ADME, organism-based; conditions: in vivo
# [13] = AUC (0 to 24 hrs) in Balb/c mouse at 1 mg/kg, iv or 3 mg/kg, po by LC-MS/MS analysis; type: ADME, organism-based; conditions: in vivo
# [14] = Fraction unbound in mouse plasma at 2 uM after 6 hrs by LC-MS/MS based equilibrium dialysis method; type: ADME, cell-free
# [15] = Oral bioavailability in Balb/c mouse at 3 mg/kg by LC-MS/MS analysis; type: ADME, organism-based; conditions: in vivo
# Mus musculus [16] = test: In vivo inhibition of PI3Kdelta in Balb/c mouse assessed as reduction in trinitrophenylated aminoethylcarboxymethyl-Ficoll-induced antibody production in plasma administered orally twice daily measured on day 4 by ELISA; type: functional, organism-based
# Mus musculus [17] = test: In vivo inhibition of PI3Kdelta in Balb/c mouse assessed as reduction in trinitrophenylated aminoethylcarboxymethyl-Ficoll-induced antibody production in plasma at 2 mg/kg, po administered twice daily measured on day 4 by ELISA relative to control; type: functional; conditions: 96 h
# Mus musculus [18] = test: In vivo inhibition of PI3Kdelta in Balb/c mouse assessed as reduction in trinitrophenylated aminoethylcarboxymethyl-Ficoll-induced antibody production in plasma at 1 mg/kg, po administered twice daily measured on day 4 by ELISA relative to control; type: functional; conditions: 96 h
# Mus musculus [19] = test: In vivo inhibition of PI3Kdelta in Balb/c mouse assessed as reduction in trinitrophenylated aminoethylcarboxymethyl-Ficoll-induced antibody production in plasma at 0.5 mg/kg, po administered twice daily measured on day 4 by ELISA relative to control; type: functional; conditions: 96 h
# [20] = Metabolic stability in CD-1 mouse liver microsomes at 0.2 uM up to 45 mins in presence of NADPH by LC-MS/MS analysis; type: ADME, microsome; conditions: 0.75 h
# Chain of PI3-kinase p110-delta/p85-alpha (P27986 whole entry): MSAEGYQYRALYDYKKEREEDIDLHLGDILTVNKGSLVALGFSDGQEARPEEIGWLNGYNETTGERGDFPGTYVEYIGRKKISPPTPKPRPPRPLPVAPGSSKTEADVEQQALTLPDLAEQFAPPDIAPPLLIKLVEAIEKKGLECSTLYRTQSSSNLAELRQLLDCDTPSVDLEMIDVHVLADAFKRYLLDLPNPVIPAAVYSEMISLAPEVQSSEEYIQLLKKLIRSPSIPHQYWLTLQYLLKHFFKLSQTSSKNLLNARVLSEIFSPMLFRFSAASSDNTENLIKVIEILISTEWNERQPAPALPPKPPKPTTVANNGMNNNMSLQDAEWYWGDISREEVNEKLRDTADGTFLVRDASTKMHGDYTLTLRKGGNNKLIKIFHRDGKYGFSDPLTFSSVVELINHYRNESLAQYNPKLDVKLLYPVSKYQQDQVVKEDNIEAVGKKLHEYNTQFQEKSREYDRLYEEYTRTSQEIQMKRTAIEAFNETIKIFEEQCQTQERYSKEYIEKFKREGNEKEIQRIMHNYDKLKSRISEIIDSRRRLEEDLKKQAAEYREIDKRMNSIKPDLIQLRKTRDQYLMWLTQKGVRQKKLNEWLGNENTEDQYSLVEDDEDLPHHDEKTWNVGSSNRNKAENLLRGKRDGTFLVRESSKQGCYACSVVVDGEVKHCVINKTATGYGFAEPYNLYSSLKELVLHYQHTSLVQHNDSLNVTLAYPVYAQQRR
# Chain of PI3-kinase p110-delta/p85-alpha (O00329 whole entry): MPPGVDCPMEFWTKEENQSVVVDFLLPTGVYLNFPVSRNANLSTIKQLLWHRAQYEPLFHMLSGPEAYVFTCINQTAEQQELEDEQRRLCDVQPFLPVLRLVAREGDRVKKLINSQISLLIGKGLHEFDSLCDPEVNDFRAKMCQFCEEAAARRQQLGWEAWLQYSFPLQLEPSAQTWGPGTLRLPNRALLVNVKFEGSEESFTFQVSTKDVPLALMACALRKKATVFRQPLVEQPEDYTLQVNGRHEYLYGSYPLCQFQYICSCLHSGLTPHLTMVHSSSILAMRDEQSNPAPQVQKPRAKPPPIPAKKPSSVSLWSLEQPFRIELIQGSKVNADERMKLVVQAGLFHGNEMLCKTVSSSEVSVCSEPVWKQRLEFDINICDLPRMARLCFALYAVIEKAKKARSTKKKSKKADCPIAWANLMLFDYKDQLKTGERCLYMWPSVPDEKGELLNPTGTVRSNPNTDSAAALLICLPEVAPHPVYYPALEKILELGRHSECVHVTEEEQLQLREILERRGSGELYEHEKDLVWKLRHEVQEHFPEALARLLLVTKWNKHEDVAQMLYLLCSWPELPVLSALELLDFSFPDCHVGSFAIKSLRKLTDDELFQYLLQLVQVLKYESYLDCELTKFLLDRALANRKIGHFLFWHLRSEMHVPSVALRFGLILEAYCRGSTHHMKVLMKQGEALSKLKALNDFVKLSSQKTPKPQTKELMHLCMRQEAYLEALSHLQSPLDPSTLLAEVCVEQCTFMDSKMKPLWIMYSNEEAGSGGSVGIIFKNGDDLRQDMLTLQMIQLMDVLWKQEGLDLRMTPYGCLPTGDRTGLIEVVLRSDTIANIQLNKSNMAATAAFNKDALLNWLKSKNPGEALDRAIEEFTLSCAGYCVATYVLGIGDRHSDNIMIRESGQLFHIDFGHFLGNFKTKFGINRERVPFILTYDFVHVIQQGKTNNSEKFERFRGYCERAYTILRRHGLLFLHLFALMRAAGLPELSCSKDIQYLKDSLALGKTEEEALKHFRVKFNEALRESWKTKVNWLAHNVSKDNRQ
compound,measurement,setting,value
COc1ncc(-c2cc(OC[C@@H]3CCCN(CC4(C)COC4)C3)c3cnn(C)c3n2)cc1NS(C)(=O)=O,IC50,[1],1.8 nM
same,Ratio IC50,Homo sapiens [2],570
same,CLint scaled at 0.2 µM,[3],910 mL/min/kg
COc1ncc(-c2cc(O[C@H]3CC[C@H](NC(=O)C4CCOCC4)CC3)c3cnn(C)c3n2)cc1NS(C)(=O)=O,IC50,[1],150 nM
COc1ncc(-c2cc(OC[C@@H]3CCCN(CCC4CCOCC4)C3)c3cnn(C)c3n2)cc1NS(C)(=O)=O,"solubility at 20 h, 130 µM",[4],≥ 100 µM
same,IC50,[1],1.3 nM
same,Ratio IC50,Homo sapiens [2],430
same,Ratio IC50,Homo sapiens [5],660
same,Ratio IC50,Homo sapiens [6],3600
same,CLint scaled at 0.2 µM,[3],88 mL/min/kg
same,"Papp at 2 h, 50 µM",[7],22 ×10⁻⁶ cm/s
same,inhibition (INH),Cytochrome P450 1A2,Not Active
same,inhibition (INH),Cytochrome P450 2C8,Not Active
same,inhibition (INH),Cytochrome P450 2C9,Not Active
same,inhibition (INH),Cytochrome P450 2C19,Not Active
same,inhibition (INH),Cytochrome P450 2D6,Not Active
same,inhibition (INH),Cytochrome P450 3A4,Not Active
same,clearance,[8],25.5 mL/min/kg
same,Vd,[9],5.64 L/kg
same,half-life,[10],2.63 h
same,Cmax,[11],230 ng/mL
same,Tmax,[12],0.5 h
same,AUC(0-t),[13],1420 ng·h/mL
same,"fraction unbound at 6 h, 2 µM",[14],0.23
same,bioavailability,[15],73%
same,inhibition,Mus musculus [16],Dose-dependent effect
same,inhibition in vivo at 2 mg/kg,Mus musculus [17],83%
same,inhibition in vivo at 1 mg/kg,Mus musculus [18],68%
same,inhibition in vivo at 0.5 mg/kg,Mus musculus [19],56%
COc1ncc(-c2cc(OC[C@H]3CCCN(C(=O)C4CCOCC4)C3)c3cnn(C)c3n2)cc1NS(C)(=O)=O,IC50,[1],30 nM
same,Ratio IC50,Homo sapiens [2],6.6
COc1ncc(-c2cc(OC[C@@H]3CCCN(Cc4cn(C)nc4C)C3)c3cnn(C)c3n2)cc1NS(C)(=O)=O,IC50,[1],3.2 nM
same,Ratio IC50,Homo sapiens [2],730
same,CLint scaled at 0.2 µM,[3],> 1000 mL/min/kg
COc1ncc(-c2cc(OC3CN(C(=O)C4CCOCC4)C3)c3cnn(C)c3n2)cc1NS(C)(=O)=O,IC50,[1],63 nM
same,Ratio IC50,Homo sapiens [2],3.7
COc1ncc(-c2cc(OC[C@@H]3CCCN(C(=O)C4CCN(C(C)=O)CC4)C3)c3cnn(C)c3n2)cc1NS(C)(=O)=O,IC50,[1],4.6 nM
same,Ratio IC50,Homo sapiens [2],260
COc1ncc(-c2cc(OC[C@@H]3CCCN(C(=O)CC4CCOC4)C3)c3cnn(C)c3n2)cc1NS(C)(=O)=O (stereo partly specified),IC50,[1],4.8 nM
same,Ratio IC50,Homo sapiens [2],210
COc1ncc(-c2cc(OC[C@@H]3CCCN(C(=O)C4CCOCC4)C3)c3cnn(C)c3n2)cc1NS(C)(=O)=O,IC50,[1],3.9 nM
same,Ratio IC50,Homo sapiens [2],39
same,Ratio IC50,Homo sapiens [5],1300
same,Ratio IC50,Homo sapiens [6],490
COc1ncc(-c2cc(O[C@@H]3CCN(Cc4c(C)nn(C)c4C)C3)c3cnn(C)c3n2)cc1NS(C)(=O)=O,CLint scaled at 0.2 µM,[3],620 mL/min/kg
same,inhibition in vivo at 2 mg/kg,Mus musculus [17],37%
COc1ncc(-c2cc(OC[C@@H]3CCCN(Cc4c(C)nn(C)c4C)C3)c3cnn(C)c3n2)cc1NS(C)(=O)=O,IC50,[1],1.4 nM
same,Ratio IC50,Homo sapiens [2],780
same,CLint scaled at 0.2 µM,[3],> 1000 mL/min/kg
COc1ncc(-c2cc(OC[C@@H]3CCCN(C(=O)C4CCN(CCC(F)(F)F)CC4)C3)c3cnn(C)c3n2)cc1NS(C)(=O)=O,IC50,[1],41 nM
same,Ratio IC50,Homo sapiens [2],38
COc1ncc(-c2cc(OC[C@@H]3CCCN(CC4CCOCC4)C3)c3cnn(C)c3n2)cc1NS(C)(=O)=O,IC50,[1],0.79 nM
same,Ratio IC50,Homo sapiens [2],87
same,Ratio IC50,Homo sapiens [5],890
same,Ratio IC50,Homo sapiens [6],3200
same,CLint scaled at 0.2 µM,[3],340 mL/min/kg
COc1ncc(-c2cc(O[C@@H]3CCN(C(=O)C4CCOCC4)C3)c3cnn(C)c3n2)cc1NS(C)(=O)=O,Stability,[20],Stable
same,inhibition in vivo at 2 mg/kg,Mus musculus [17],32%
same,inhibition in vivo at 1 mg/kg,Mus musculus [18],-2%
COc1ncc(-c2cc(OC[C@@H]3CCCN(C(=O)c4cccnn4)C3)c3cnn(C)c3n2)cc1NS(C)(=O)=O,IC50,[1],7.3 nM
same,Ratio IC50,Homo sapiens [2],35
